Data published in ChEMBL document CHEMBL3588795, “GPCR crystal structures: Medicinal chemistry in the pocket” (Bioorg Med Chem, 2015).

Biological target: Metabotropic glutamate receptor 1 (Homo sapiens, UniProt Q13255)
Assay: Negative allosteric modulation of human mGluR1alpha expressed in syrian hamster AV-12 cells assessed as inhibition of quisqualate-induced phosphoinositide hydrolysis
Format: cell-based, AV12

Metabotropic glutamate receptor 1, sequence (Q13255 whole entry): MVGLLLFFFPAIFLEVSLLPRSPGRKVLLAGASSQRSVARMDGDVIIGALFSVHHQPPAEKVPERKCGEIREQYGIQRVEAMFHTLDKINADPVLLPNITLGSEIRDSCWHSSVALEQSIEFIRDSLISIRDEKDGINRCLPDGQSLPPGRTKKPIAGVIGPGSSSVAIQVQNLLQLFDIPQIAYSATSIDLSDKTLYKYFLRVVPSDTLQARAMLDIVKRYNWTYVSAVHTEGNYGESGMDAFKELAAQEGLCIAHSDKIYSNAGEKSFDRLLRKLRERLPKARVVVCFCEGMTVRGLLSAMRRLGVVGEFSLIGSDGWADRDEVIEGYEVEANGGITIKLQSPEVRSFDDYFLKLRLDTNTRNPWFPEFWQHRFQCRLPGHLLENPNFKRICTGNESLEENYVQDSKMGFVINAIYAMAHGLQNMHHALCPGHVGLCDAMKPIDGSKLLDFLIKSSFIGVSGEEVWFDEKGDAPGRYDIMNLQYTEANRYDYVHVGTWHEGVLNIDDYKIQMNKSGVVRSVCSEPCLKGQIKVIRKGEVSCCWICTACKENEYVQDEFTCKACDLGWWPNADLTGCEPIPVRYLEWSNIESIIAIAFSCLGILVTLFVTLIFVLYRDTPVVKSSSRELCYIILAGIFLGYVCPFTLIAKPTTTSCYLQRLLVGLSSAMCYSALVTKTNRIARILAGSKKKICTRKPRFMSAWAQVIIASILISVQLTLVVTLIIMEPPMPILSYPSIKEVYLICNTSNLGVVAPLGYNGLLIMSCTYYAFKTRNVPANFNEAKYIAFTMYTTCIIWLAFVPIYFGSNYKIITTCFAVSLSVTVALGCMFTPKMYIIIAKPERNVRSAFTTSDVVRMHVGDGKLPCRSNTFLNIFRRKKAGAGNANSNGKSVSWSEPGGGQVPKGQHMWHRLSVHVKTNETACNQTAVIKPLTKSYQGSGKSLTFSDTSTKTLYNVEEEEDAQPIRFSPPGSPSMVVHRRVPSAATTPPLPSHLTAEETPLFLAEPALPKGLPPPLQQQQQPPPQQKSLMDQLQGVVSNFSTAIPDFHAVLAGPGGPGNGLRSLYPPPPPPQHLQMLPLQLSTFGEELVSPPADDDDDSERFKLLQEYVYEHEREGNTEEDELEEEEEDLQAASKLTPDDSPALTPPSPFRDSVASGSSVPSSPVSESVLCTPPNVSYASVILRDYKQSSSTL

SMILES: Cc1cc(C(=O)O)ccc1[C@H](N)C(=O)O
- IC50: 8 µM
